Patent US20260137661A1, “PPAR-ALPHA/GAMMA AGONIST FOR USE IN THE TREATMENT OF LIVER FAILURE” (Genfit, priority 2022, published 2026)

Experiments:
[1] = test system: HepG2 cell line; assay: Staurosporine-induced apoptosis in HepG2 cells: caspase 3/7 activity; type: cell-based; conditions: Homo sapiens, 16 h pre-treatment, then 10 μM staurosporin for 4 h, p<0.001
Method: In order to evaluate the effect of the compounds to protect hepatocytes from cell death, apoptosis was induced by staurosporine in the human hepatoblastoma-derived HepG2 cell line (ECACC, #85011430, Sigma-Aldrich). HepG2 was cultured in high-glucose DMEM medium (#41965, Gibco, France) supplemented with 10% of fetal bovine serum (FBS, #10270, Gibco), 1% penicillin/streptomycin (#15140, Gibco), 1% sodium pyruvate (#11360, Gibco) and 1% MEM non-essential amino acids (#11140, Gibco) in a 5% CO2 incubator at 37° C.
To evaluate caspase 3/7 activity, which is a surrogate marker of apoptosis, 1.5×10^4 cells were plated in a 384-well plate (#781080, Greiner, France). After cell adherence (8 hours), cells were serum starved for 16h in the presence of compounds (dose ranging from 0.3 to 10 µM) or vehicle. Thereafter, cells were treated with 10 μM staurosporin (#569397, Sigma-Aldrich, Germany) supplemented with compound for additional 4 hours before cell lysis and caspase activity measurement.
Caspase 3/7 activity was measured using Caspase Glow™ 3/7 assay (#G8093, Promega, USA). Luminescence was measured using a Spark microplate reader (#30086376, Tecan, USA). The amount of luminescence (RLU) directly correlates with caspase 3/7 activity.

[2] = test system: C57BL/6J male mice; assay: LPS/GalN mouse model of acute liver failure: serum hepatic markers and cytokines; type: in vivo; conditions: 1 mg/kg/day oral gavage for 3 days before LPS/GalN injection, serum 6 h after LPS/GalN, vs vehicle
Excerpt: Low doses of LPS in combination with the hepatotoxic agent D-Galactososamine (GalN) promote specific liver injury in mice and induce the inflammatory cytokines production, thus recapitulating the clinical picture of acute liver injury in human (Pourcet et al., Gastroenterology, 2018, 154 (5), p 1449-1464.e20). Hepatic injury induced by LPS/GalN is therefore a widely used mouse model to evaluate the effect of pharmacological agents on acute liver failure.
To evaluate the efficacy of the compounds on liver injury and function and the inflammatory response occurring upon acute liver failure, C57BL/6J male mice (8 weeks old, Janvier Labs) received an intraperitoneal injection of 0.025 mg/kg LPS (Escherichia coli 0111: B4, #L2630, Sigma-Aldrich) supplemented with 700 mg/kg D-Galactosamine (GalN, G0500, Sigma-Aldrich).
Cpd.1 (1 mg/kg/day) or vehicle (carboxymethylcellulose 1%, 0.1% Tween 80) was administered by oral gavage during the three days before LPS/GalN injection (n=10-12 per group). Mice were sacrificed 6h after LPS/GalN injection. Blood samples were obtained from retro-orbital sinus puncture on animals slightly asleep with isoflurane (Isoflurin 1000 mg/g, GTIN 03760087152678, Axience) just before sacrifice. A group of mice (n=4) received an intraperitoneal injection to be used as healthy controls.
Serum aspartate aminotransferase (ASAT) was measured using Randox kit for Daytona Plus automate (AS 8306) according to the manufacturer recommendation. ASAT enzymatically transforms alpha-oxoglutarate and L-aspartate into L-glutamate and oxaloacetate. In the presence of NADH, the generated oxaloacetate is converted by malate dehydrogenase to form L-malate and NAD+. The kinetics of the reaction is studied and allows the concentration of ASAT to be calculated.
Serum alanine aminotransferase (ALAT) was measured using Randox kit for Daytona Plus automate (AL 8304) according to the manufacturer recommendation. ALAT enzymatically transforms alpha-oxoglutarate and L-alanine into L-glutamate and pyruvate. In the presence of NADH, the generated pyruvate is converted by lactate dehydrogenase to form L-lactate and NAD+. The kinetics of the reaction is studied and allows the concentration of ALAT to be calculated.
Serum total bilirubin was measured using Randox kit for Daytona Plus automate (BR 8377) according to the manufacturer recommendation. The bilirubin is oxidized by vanadate at about pH 2.9 to produce biliverdin. In the presence of detergent and vanadate, both conjugate and unconjugated bilirubin are oxidized. This oxidation reaction causes a decrease in the optical density of the yellow color, which is specific to bilirubin. The decrease in optical density at 450/546 nm is proportional to the total bilirubin concentration in the sample.
Serum total bile acids were measured using Randox kit for Daytona Plus automate (BI 3863) according to the manufacturer recommendation. In the presence of Thio-NAD, the enzyme 3-α-hydroxysteroid dehydrogenase (3-α-HSD) converts bile acids to 3-keto steroids and Thio-NADH. In the presence of excess NADH, the enzyme cycling occurs efficiently and the rate of formation of Thio-NADH is determined by measuring specific change of absorbance at 405 nm.
The concentration of serum interleukin-6 (IL6) was determined using a multiplex sandwich ELISA system (Mouse Magnetic Luminex #LSXAMSM-06, Biotechne) according to the manufacturer instructions. […] After washing, IL6 was detected through the addition of biotinylated antibodies. […]

SMILES: CCO[C@@H](Cc1ccc(OCCc2ccc(OS(C)(=O)=O)cc2)cc1)C(=O)O [Cpd. 1, (S)-2-ethoxy-3-(4-(4-((methylsulfonyl)oxy)phenethoxy)phenyl) propanoic acid]
- inhibition at 10 µM ([1]; 10 μM compound): 12%
- reduction of total bilirubin ([2]; p=0.003): 73%
- reduction of total bile acids ([2]; p=0.004): 79%
- change of pro-inflammatory cytokine IL6 (serum) ([2]; p=0.01): −78%
- decrease of serum ASAT ([2]; p=0.01): 66%
- decrease of serum ALAT ([2]; p=0.03): 57%

SMILES: COc1ccc(OC(=O)N(CC(=O)O)Cc2ccc(OCCc3nc(-c4ccccc4)oc3C)cc2)cc1 [Cpd.2, N-[(4-methoxyphenoxy)carbonyl]-N-[[4-[2-(5-methyl-2-phenyl-4-oxazolyl)ethoxy]phenyl]methyl]glycine]
- inhibition at 3 µM ([1]; 3 μM compound): 24%
